Read-outs that look alike come from different tables or passages of the source.
Key:
[1] = system: pulmonary arterial smooth muscle cells; test: Suppression of proliferation of pulmonary arterial smooth muscle cells (PDGF-BB stimulation, BrdU); format: cell-based; details: healthy human derived pulmonary arterial smooth muscle cells, human PDGF-BB 10 ng/mL stimulation, BrdU uptake after 1 day, test substance final concentration 3 to 10,000 nM, read-out: Human normal PASMC proliferation suppression (PDGF stimulation_IC50)
Description: (§1) 1. Preparation of Test Substance
Furthermore, it was diluted by 50 times with distilled water.
2. Measurement of Suppression Action Against Proliferation of Pulmonary Arterial Smooth Muscle Cells
The day after healthy human derived pulmonary arterial smooth muscle cells were seeded onto a 96 well plate using a smooth muscle cell proliferation medium, the proliferation medium was replaced with a 0.1% FBS medium, and the cells were cultured for an additional day. A test substance solution was diluted by 10 times with a medium containing BrdU and human PDGF-BB (final concentration of 10 ng/mL, Sigma-Aldrich) and added to cells in equal amounts so as to reach a final concentration of 3 to 10,000 nM. Also, to the human PDGF-BB negative control, BrdU and 0.1% DMSO solution were added. After culturing for 1 day, the amount of BrdU taken up by the proliferating cells was measured using an anti-BrdU antibody.
(§2) 3. Analysis of Measurement Results

PDGFR-β = PDGFR-β (Homo sapiens (Human), UniProt P09619); test: PDGFR-β tyrosine kinase inhibitory action (HTRF KinEASE-TK); format: biochemical; details: PDGFR-β enzyme 1 ng/μL, 30° C. for 30 minutes; read-out: PDGF-β IC50
Description: as §1
This DMSO solution was diluted by 8 times with an assay buffer 1 (50 mM HEPES (pH 7.0), 0.02% NaN3, 0.01% Bovine Serum Albumin, 0.1 mM orthovanadate, 1 mM Dithiothreitol, 5 mM MgCl2, and 1 mM MnCl2) and further diluted by 5 times with an assay buffer 2 (50 mM HEPES (pH 7.0), 0.02% NaN3, 0.01% Bovine Serum Albumin, 0.1 mM orthovanadate, 1 mM Dithiothreitol, 5 mM MgCl2, 1 mM MnCl2, and 40 nM Supplemented Enzymatic Buffer (cisbio)).
2. Measurement of PDGFR-β Tyrosine Kinase Inhibitory Action
For the measurement, the HTRF KinEASE-TK kit from Cisbio Bioassays SAS was used. To a 384 well plate, the test substance solution was added at 4 μL each, then 2 μL of a PDGFR-β enzyme solution (final concentration of 1 ng/μL, Carna Biosciences, Inc.) and 4 μL of a substrate solution obtained by adding 0.6 μM ATP to TK substrate-3-biotin (cisbio) were added, and the solution was allowed to react at 30° C. for 30 minutes at a final concentration of the test substance being 0.01 to 10,000 nM.
Thereafter, 10 μL of a detection solution (cisbio) was added to each well and allowed to react at 30° C. for 1 hour. The fluorescence intensity was measured with a microplate reader (Spectra Max M5, Molecular device).
as §2

Sequence of PDGFR-β (P09619 33-1106): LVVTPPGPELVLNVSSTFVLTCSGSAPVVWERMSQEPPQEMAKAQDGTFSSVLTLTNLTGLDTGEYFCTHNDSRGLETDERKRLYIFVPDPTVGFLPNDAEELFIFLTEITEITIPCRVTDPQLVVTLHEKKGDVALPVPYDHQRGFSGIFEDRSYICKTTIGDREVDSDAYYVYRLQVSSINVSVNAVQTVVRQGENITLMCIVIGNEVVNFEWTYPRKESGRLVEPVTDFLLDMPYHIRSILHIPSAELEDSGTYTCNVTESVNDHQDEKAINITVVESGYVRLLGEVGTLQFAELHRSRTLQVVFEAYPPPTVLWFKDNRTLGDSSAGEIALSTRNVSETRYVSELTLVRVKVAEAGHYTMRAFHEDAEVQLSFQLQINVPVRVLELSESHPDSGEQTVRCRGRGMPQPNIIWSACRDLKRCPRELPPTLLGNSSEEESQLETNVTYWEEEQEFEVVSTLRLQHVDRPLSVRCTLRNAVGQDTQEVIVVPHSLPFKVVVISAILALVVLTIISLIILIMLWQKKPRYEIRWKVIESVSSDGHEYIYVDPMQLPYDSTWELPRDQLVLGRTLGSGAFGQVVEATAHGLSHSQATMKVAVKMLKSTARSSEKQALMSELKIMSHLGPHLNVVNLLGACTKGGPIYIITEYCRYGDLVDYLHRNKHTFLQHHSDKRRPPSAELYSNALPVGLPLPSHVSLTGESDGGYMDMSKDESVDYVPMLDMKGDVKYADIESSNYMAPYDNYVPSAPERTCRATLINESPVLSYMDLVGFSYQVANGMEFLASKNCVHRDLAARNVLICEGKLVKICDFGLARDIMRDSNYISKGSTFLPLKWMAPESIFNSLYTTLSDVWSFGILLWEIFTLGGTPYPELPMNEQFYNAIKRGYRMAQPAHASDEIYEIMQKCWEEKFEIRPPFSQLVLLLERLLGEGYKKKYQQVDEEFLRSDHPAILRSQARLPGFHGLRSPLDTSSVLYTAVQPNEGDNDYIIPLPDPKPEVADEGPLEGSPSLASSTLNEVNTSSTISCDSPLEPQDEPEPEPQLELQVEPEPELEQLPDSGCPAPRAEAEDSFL

| IC50 (PDGFR-β) [µM] | SMILES | IC50 ([1]; PASMC, 24 h) [µM] | IC50 [1] [µM] |
| --- | --- | --- | --- |
| 0.15 | Cc1ccc(C(=O)N[C@H]2CCCC[C@@H]2O)cc1NCc1ccc(-n2cccn2)nc1 [Example 122, N-[(1S,2S)-2-hydroxycyclohexyl]-4-methyl-3-({[6-(1H-pyrazol-1-yl)pyridin-3-yl]methyl}amino)benzamide] | 0.3 |  |
| 0.21 | Cc1ncc(C(=O)N[C@H]2CCCC[C@@H]2O)cc1NCc1cnn2ccccc12 [Example 123, N-[(1S,2S)-2-hydroxycyclohexyl]-6-methyl-5-{[(pyrazolo[1,5-a]pyridin-3-yl)methyl]amino}pyridine-3-carboxamide] | 0.29 |  |
| 0.022 | COC(=O)Nc1ccc(CNc2cc(C(=O)N[C@H]3CCCC[C@@H]3O)ccc2C)cn1 [Example 124, methyl {5-[(5-{[(1S,2S)-2-hydroxycyclohexyl]carbamoyl}-2-methylanilino)methyl]pyridin-2-yl}carbamate] | 0.025 |  |
| 0.13 | Cc1ccc(C(=O)N[C@H]2CCCC[C@@H]2O)cc1NCc1ccc(NC2CCOCC2)nc1 [Example 125, N-[(1S,2S)-2-hydroxycyclohexyl]-4-methyl-3-[({6-[(oxan-4-yl)amino]pyridin-3-yl}methyl)amino]benzamide] | 0.03 |  |
| 0.045 | Cc1ccc(C(=O)N[C@H]2CCCC[C@@H]2O)cc1NCc1cnc(Nc2ccccn2)nc1 [Example 126, N-[(1S,2S)-2-hydroxycyclohexyl]-4-methyl-3-[({2-[(pyridin-2-yl)amino]pyrimidin-5-yl}methyl)amino]benzamide] | 0.064 |  |
| 0.063 | Cc1ccc(C(=O)N[C@H]2CCCC[C@@H]2O)cc1NCc1ccc(NC(=O)N2CCOCC2)nc1 [Example 127, N-{5-[(5-{[(1S,2S)-2-hydroxycyclohexyl]carbamoyl}-2-methylanilino)methyl]pyridin-2-yl}morpholine-4-carboxamide] | 0.045 |  |
| 0.18 | COc1ccc(-c2ncc(CNc3cc(C(=O)N[C@H]4CCCC[C@@H]4O)ccc3C)cn2)cc1 [Example 128, N-[(1S,2S)-2-hydroxycyclohexyl]-3-({[2-(4-methoxyphenyl)pyrimidin-5-yl]methyl}amino)-4-methylbenzamide] | 0.079 |  |
| 0.017 | Cc1ccc(C(=O)N[C@H]2CCCC[C@@H]2O)cc1NCc1ccc(NC(=O)Nc2cccnc2)nc1 [Example 129, N-[(1S,2S)-2-hydroxycyclohexyl]-4-methyl-3-{[(6-{[(pyridin-3-yl)carbamoyl]amino}pyridin-3-yl)methyl]amino}benzamide] | 0.02 |  |
| 0.08 | Cc1ccc(C(=O)N[C@H]2CCCC[C@@H]2O)cc1NCc1ccc(NC2CCC2)nc1 [Example 130, 3-({[6-(cyclobutylamino)pyridin-3-yl]methyl}amino)-N-[(1S,2S)-2-hydroxycyclohexyl]-4-methylbenzamide] | 0.053 |  |
| 0.49 | Cc1ccc(C(=O)N[C@H]2CCCC[C@@H]2O)cc1NCc1cnc(N)cn1 [Example 131, 3-{[(5-aminopyrazin-2-yl)methyl]amino}-N-[(1S,2S)-2-hydroxycyclohexyl]-4-methylbenzamide] | 0.34 |  |
| 0.072 | Cc1ccc(C(=O)N[C@H]2CCCC[C@@H]2O)cc1NCc1cnc(NC2CCOCC2)nc1 [Example 132, N-[(1S,2S)-2-hydroxycyclohexyl]-4-methyl-3-[({2-[(oxan-4-yl)amino]pyrimidin-5-yl}methyl)amino]benzamide] | 0.073 |  |
| 0.17 | Cc1ccc(C(=O)N[C@H]2CCCC[C@@H]2O)cc1NCc1ccc(NC(=O)N(C)C2CC2)nc1 [Example 133, 3-{[(6-{[cyclopropyl(methyl)carbamoyl]amino}pyridin-3-yl)methyl]amino}-N-[(1S,2S)-2-hydroxycyclohexyl]-4-methylbenzamide] | 0.11 |  |
| 0.17 | Cc1ccc(C(=O)N[C@H]2CCCC[C@@H]2O)cc1NCc1ccc(NC(C)C)nc1 [Example 134, N-[(1S,2S)-2-hydroxycyclohexyl]-4-methyl-3-[({6-[(propan-2-yl)amino]pyridin-3-yl}methyl)amino]benzamide] | 0.06 |  |
| 0.12 | Cc1ccc(C(=O)N[C@H]2CCCC[C@@H]2O)cc1NCc1cnc(N[C@@H]2CCOC2)nc1 [Example 135, N-[(1S,2S)-2-hydroxycyclohexyl]-4-methyl-3-{[(2-{[(3R)-oxolan-3-yl]amino}pyrimidin-5-yl)methyl]amino}benzamide] | 0.39 |  |
| 0.032 | Cc1ccc(C(=O)N[C@H]2CCCC[C@@H]2O)cc1NCc1cnc(N[C@H]2CCOC2)nc1 [Example 136, N-[(1S,2S)-2-hydroxycyclohexyl]-4-methyl-3-{[(2-{[(3S)-oxolan-3-yl]amino}pyrimidin-5-yl)methyl]amino}benzamide] | 0.15 |  |
| 0.041 | Cc1ccc(C(=O)N[C@H]2CCCC[C@@H]2O)cc1NCc1ccc(NC(=O)C2CCOCC2)nc1 [Example 137, N-{5-[(5-{[(1S,2S)-2-hydroxycyclohexyl]carbamoyl}-2-methylanilino)methyl]pyridin-2-yl}oxane-4-carboxamide] | 0.06 |  |
| 0.016 | COC1CC(C(=O)Nc2ccc(CNc3cc(C(=O)N[C@H]4CCCC[C@@H]4O)ccc3C)cn2)C1 (stereo partly drawn) [Example 138, N-[(1S,2S)-2-hydroxycyclohexyl]-3-{[(6-{[(1r,3r)-3-methoxycyclobutane-1-carbonyl]amino}pyridin-3-yl)methyl]amino}-4-methylbenzamide] |  | 0.051 |
| 0.03 | Cc1ccc(C(=O)N[C@H]2CCCC[C@@H]2O)cc1NCc1ccc(NC(=O)C2CCOC2)nc1 (stereo partly drawn) [Example 139, N-{5-[(5-{[(1S,2S)-2-hydroxycyclohexyl]carbamoyl}-2-methylanilino)methyl]pyridin-2-yl}oxolane-3-carboxamide] | 0.1 |  |
| 0.33 | Cc1ccc(C(=O)N[C@H]2CCCC[C@@H]2O)cc1NCc1ccc(-n2ccnn2)nc1 [Example 140, N-[(1S,2S)-2-hydroxycyclohexyl]-4-methyl-3-({[6-(1H-1,2,3-triazol-1-yl)pyridin-3-yl]methyl}amino)benzamide] | 0.043 |  |
| 0.069 | Cc1ccc(C(=O)N[C@H]2CCCC[C@@H]2O)cc1NCc1ccc(NC2COC2)nc1 [Example 141, N-[(1S,2S)-2-hydroxycyclohexyl]-4-methyl-3-[({6-[(oxetan-3-yl)amino]pyridin-3-yl}methyl)amino]benzamide] | 0.19 |  |
| 0.21 | Nc1ncc(CNc2cc(C(=O)N[C@H]3CCCC[C@@H]3O)ccc2Cl)cn1 [Example 142, 3-{[(2-aminopyrimidin-5-yl)methyl]amino}-4-chloro-N-[(1S,2S)-2-hydroxycyclohexyl]benzamide] | 0.13 |  |
| 0.097 | Cc1c(F)cc(C(=O)N[C@H]2CCCC[C@@H]2O)cc1NCc1cnc(N)nc1 [Example 143, 3-{[(2-aminopyrimidin-5-yl)methyl]amino}-5-fluoro-N-[(1S,2S)-2-hydroxycyclohexyl]-4-methylbenzamide] | 0.09 |  |
| 0.065 | Cc1ccc(C(=O)N[C@H]2CCCC[C@@H]2O)cc1NCc1cnc2c(c1)OCCN2 [Example 144, 3-{[(3,4-dihydro-2H-pyrido[3,2-b][1,4]oxazin-7-yl)methyl]amino}-N-[(1S,2S)-2-hydroxycyclohexyl]-4-methylbenzamide] | 0.039 |  |
| 0.1 | Cc1ccc(C(=O)N[C@H]2CCCC[C@@H]2O)cc1NCc1cncc(-n2nccn2)c1 [Example 145, N-[(1S,2S)-2-hydroxycyclohexyl]-4-methyl-3-({[5-(2H-1,2,3-triazol-2-yl)pyridin-3-yl]methyl}amino)benzamide] | 0.047 |  |
| 0.36 | O=C(N[C@H]1CCCC[C@@H]1O)c1cccc(CNc2cncc(-c3ncccn3)c2)c1 [Example 150, N-[(1S,2S)-2-hydroxycyclohexyl]-3-({[5-(pyrimidin-2-yl)pyridin-3-yl]amino}methyl)benzamide] | 0.3 |  |
| 0.17 | O=C(N[C@H]1CCCC[C@@H]1O)c1ccc(F)c(CNc2cncc(-c3ncccn3)c2)c1 [Example 151, 4-fluoro-N-[(1S,2S)-2-hydroxycyclohexyl]-3-({[5-(pyrimidin-2-yl)pyridin-3-yl]amino}methyl)benzamide] | 0.25 |  |

Reference: patent US12509424B2, “Compound and composition as PDGF receptor kinase inhibitor” (NIPPON SHINYAKU CO., LTD., priority 2019, dated 2025)
